Assay results taken from patent US20170238571A1, “A SYNERGISTIC COMPOSITION COMPRISING A MIXTURE OF BACTERIA OF THE GENERA LACTOBACILLUS AND PROPIONOBACTERIUM PARTICULARLY USEFUL TO REDUCE OR ELIMINATE PATHOGEN CONTAMINATION IN SOYBEN MEAL AND ITS DERIVATIVES; METHODS AND USES THEREOF” (Molinos Río de la Plata S.A., priority 2014, published 2017).

Experiments:
Assay type in all cases: cell-based
Salmonella = experiment: Residual effect: contamination and recontamination with Salmonella after treatment of soybean meal; details: 25° C. - 12% DBM; for Average (n = 3): Salmonella count; for LOG10 (CFU/g): Salmonella
Description: (§1) In order to assess the effectiveness of the mix of the invention in the matrix of interest, an appropriate working protocol was prepared. Initially, 500 g of soybean meal were infected with 50 mL of Salmonella solution whose composition was: 10^6 CFUS. typhimurium/mL, 10^6 CFUS. enteritidis /mLand 10^6 CFUS. heidelberg /mL in equal amounts. […] Daily determinations of Salmonella colony forming units were performed on this contaminated meal. To this end, 40.5 g of BPW to 4.5 g of the resulting meal were added and vigorously stirred, and then 100μL of this solution, were plated onto Salmonella-Shigella agar (SS Agar). When microorganisms were used in the protecting mixes, concentrations were carefully balanced, and the amount of bacteria added was always the same.
For this reason it was decided to study the response of meals protected with different solutions, by contaminating them at different times after protection. Given the complexity of the logistics of meal products, they were tested at two different times: initial contamination and recontamination on the first week after treatment; and, contamination on the fourth week with subsequent recontamination on the fifth week after treatment. In all cases, itl was contaminated and recontaminated with Salmonella solutions whose concentration was approximately 10^6 CFU/mL (as previously described).

[1] = tested on: Salmonella (S. typhimurium, S. enteritidis, S. heidelberg); experiment: Effectiveness of mixes against Salmonella in soybean meal at different temperatures; details: for Average (n = 3): Salmonella count; for LOG10 (CFU/g): Salmonella
Description: as §1, with “amounts. […] 50 g of the wet meal obtained (≈25% moisture content on dry basis) were mixed within the dry meal (≈10% moisture content dry basis) and were stirred for 10 minutes.” for “amounts.”
In the cases in which solutions with ferments were used for protection purposes, cell concentration was of about 10^8 CFU/mL.
The following tests were carried out to assess the effectiveness of different mixes under different conditions. To assess extreme temperatures, meal products were stored at 5, 25, and 32° C., after contamination and protection, respectively. Samples were taken every 24 hours and triplicate determinations of Salmonella, lactic and propionic bacteria were made.

[2] = tested on: Aspergillus niger ATCC 16404; experiment: Protection against fungi: A. niger in premixed soybean meal; details: 25° C. - 12% DBM; for Average (n = 3): A. niger count; for LOG10 (CFU/g): A. niger
Description: For the determination of fungal CFU, 20 grams of soybean meal were added to 180 mL of sterile tap water with Tween 80, which was vigorously stirred. Serial dilutions of the sample were carried out in order to perform recounting on the appropriate plates, in a Czapek-Dox agar medium.

[3] = day 8, after RECONTAMINATION (first week)
[4] = day 9, after RECONTAMINATION (first week)
[5] = day 11, after RECONTAMINATION (first week)
[6] = day 12, after RECONTAMINATION (first week)
[7] = day 13, after RECONTAMINATION (first week)
[8] = day 14, after RECONTAMINATION (first week)
[9] = day 15, after RECONTAMINATION (first week)
[10] = day 37, contamination on the fourth week after treatment
[11] = day 38, after RECONTAMINATION (fifth week)
[12] = day 39, after RECONTAMINATION (fifth week)
[13] = day 41, after RECONTAMINATION (fifth week)
[14] = day 42, after RECONTAMINATION (fifth week)
[15] = day 44, after RECONTAMINATION (fifth week)

## CCC(=O)O [Propionic Acid]
Salmonella; day 2, initial contamination
  Average (n = 3): 130
Salmonella; day 3, initial contamination
  Average (n = 3): 100.3
Salmonella; day 4, initial contamination
  Average (n = 3): 90.5
Salmonella; day 5, initial contamination
  Average (n = 3): 77
Salmonella; day 6, initial contamination
  Average (n = 3): 58
Salmonella; day 7, initial contamination
  Average (n = 3): 32
Salmonella; [3]
  Average (n = 3): 215
  LOG10 (CFU/g): 3.68 LOG10 (CFU/g)
Salmonella; [4]
  Average (n = 3): 189.33
  LOG10 (CFU/g): 3.62 LOG10 (CFU/g)
Salmonella; day 10, after RECONTAMINATION (first week)
  Average (n = 3): 144.33
Salmonella; [5]
  Average (n = 3): 109
  LOG10 (CFU/g): 3.38 LOG10 (CFU/g)
Salmonella; [6]
  Average (n = 3): 96.67
  LOG10 (CFU/g): 3.33 LOG10 (CFU/g)
Salmonella; [7]
  Average (n = 3): 70.67
  LOG10 (CFU/g): 3.20 LOG10 (CFU/g)
Salmonella; [8]
  Average (n = 3): 48.67
  LOG10 (CFU/g): 3.03 LOG10 (CFU/g)
Salmonella; [9]
  Average (n = 3): 40
  LOG10 (CFU/g): 2.95 LOG10 (CFU/g)
Salmonella; day 32, contamination on the fourth week after treatment
  Average (n = 3): 130
Salmonella; day 33, contamination on the fourth week after treatment
  Average (n = 3): 120.3
Salmonella; day 34, contamination on the fourth week after treatment
  Average (n = 3): 90.5
Salmonella; day 35, contamination on the fourth week after treatment
  Average (n = 3): 77
Salmonella; day 36, contamination on the fourth week after treatment
  Average (n = 3): 58
Salmonella; [10]
  Average (n = 3): 39
  LOG10 (CFU/g): 2.94 LOG10 (CFU/g)
Salmonella; [11]
  Average (n = 3): 247
  LOG10 (CFU/g): 3.74 LOG10 (CFU/g)
Salmonella; [12]
  Average (n = 3): 189
  LOG10 (CFU/g): 3.62 LOG10 (CFU/g)
Salmonella; day 40, after RECONTAMINATION (fifth week)
  Average (n = 3): 174.34
Salmonella; [13]
  Average (n = 3): 156.34
  LOG10 (CFU/g): 3.54 LOG10 (CFU/g)
Salmonella; [14]
  Average (n = 3): 136.34
  LOG10 (CFU/g): 3.48 LOG10 (CFU/g)
Salmonella; day 43, after RECONTAMINATION (fifth week)
  Average (n = 3): 111.67
Salmonella; [15]
  Average (n = 3): 88.34
  LOG10 (CFU/g): 3.29 LOG10 (CFU/g)
Salmonella; day 45, after RECONTAMINATION (fifth week)
  Average (n = 3): 77
[1]; 5° C. - 12% DBM, 0 days
  Average (n = 3): 199.76
  LOG10 (CFU/g): 3.65 LOG10 (CFU/g)
[1]; 5° C. - 12% DBM, 1 day
  Average (n = 3): 165
  LOG10 (CFU/g): 3.56 LOG10 (CFU/g)
[1]; 5° C. - 12% DBM, 2 days
  Average (n = 3): 131.3
  LOG10 (CFU/g): 3.47 LOG10 (CFU/g)
[1]; 5° C. - 12% DBM, 3 days
  Average (n = 3): 90.67
  LOG10 (CFU/g): 3.30 LOG10 (CFU/g)
[1]; 5° C. - 12% DBM, 4 days
  Average (n = 3): 61
  LOG10 (CFU/g): 3.13 LOG10 (CFU/g)
[1]; 5° C. - 12% DBM, 5 days
  Average (n = 3): 57
  LOG10 (CFU/g): 3.10 LOG10 (CFU/g)
[1]; 5° C. - 12% DBM, 6 days
  Average (n = 3): 38
  LOG10 (CFU/g): 2.93 LOG10 (CFU/g)
[1]; 25° C. - 12% DBM, 0 days
  Average (n = 3): 199.67
  LOG10 (CFU/g): 3.65 LOG10 (CFU/g)
[1]; 25° C. - 12% DBM, 1 day
  Average (n = 3): 145.33
  LOG10 (CFU/g): 3.51 LOG10 (CFU/g)
[1]; 25° C. - 12% DBM, 2 days
  Average (n = 3): 110
  LOG10 (CFU/g): 3.39 LOG10 (CFU/g)
[1]; 25° C. - 12% DBM, 3 days
  Average (n = 3): 90
  LOG10 (CFU/g): 3.30 LOG10 (CFU/g)
[1]; 25° C. - 12% DBM, 4 days
  Average (n = 3): 60.67
  LOG10 (CFU/g): 3.13 LOG10 (CFU/g)
[1]; 25° C. - 12% DBM, 5 days
  Average (n = 3): 57
  LOG10 (CFU/g): 3.10 LOG10 (CFU/g)
[1]; 25° C. - 12% DBM, 6 days
  Average (n = 3): 38
  LOG10 (CFU/g): 2.93 LOG10 (CFU/g)
[1]; 32° C. - 12% DBM, 0 days
  Average (n = 3): 199.67
  LOG10 (CFU/g): 3.65 LOG10 (CFU/g)
[1]; 32° C. - 12% DBM, 1 day
  Average (n = 3): 175
  LOG10 (CFU/g): 3.59 LOG10 (CFU/g)
[1]; 32° C. - 12% DBM, 2 days
  Average (n = 3): 130
  LOG10 (CFU/g): 3.46 LOG10 (CFU/g)
[1]; 32° C. - 12% DBM, 3 days
  Average (n = 3): 100.33
  LOG10 (CFU/g): 3.35 LOG10 (CFU/g)
[1]; 32° C. - 12% DBM, 4 days
  Average (n = 3): 90.67
  LOG10 (CFU/g): 3.30 LOG10 (CFU/g)
[1]; 32° C. - 12% DBM, 5 days
  Average (n = 3): 77
  LOG10 (CFU/g): 3.23 LOG10 (CFU/g)
[1]; 32° C. - 12% DBM, 6 days
  Average (n = 3): 58
  LOG10 (CFU/g): 3.11 LOG10 (CFU/g)
[2]; 0 days
  Average (n = 3): 199.76
  LOG10 (CFU/g): 3.65 LOG10 (CFU/g)
[2]; 1 day
  Average (n = 3): 152
  LOG10 (CFU/g): 3.53 LOG10 (CFU/g)
[2]; 2 days
  Average (n = 3): 121.33
  LOG10 (CFU/g): 3.43 LOG10 (CFU/g)
[2]; 3 days
  Average (n = 3): 91.67
  LOG10 (CFU/g): 3.31 LOG10 (CFU/g)
[2]; 4 days
  Average (n = 3): 78
  LOG10 (CFU/g): 3.24 LOG10 (CFU/g)
[2]; 5 days
  Average (n = 3): 57
  LOG10 (CFU/g): 3.10 LOG10 (CFU/g)
[2]; 6 days
  Average (n = 3): 38
  LOG10 (CFU/g): 2.93 LOG10 (CFU/g)
